US7858745B2, “Use of specifically engineered enzymes to enhance the efficacy of prodrugs” (The Board of Trustees of the University of Illinois, priority 2003, dated 2010)
One block for each compound: values may come before it.

What was measured:
Wild Type dCK = Wild Type dCK (Homo sapiens, UniProt P27707); test: Steady-state kinetic assay of deoxycytidine kinase activity, wild type enzyme; conditions: prodrug versus dC
A100V/R104M/D133A-dCK = A100V/R104M/D133A-dCK (Homo sapiens, UniProt P27707, A100V/D133A/R104M); test: Steady-state kinetic assay of deoxycytidine kinase activity, triple mutant enzyme
Sequence of A100V/R104M/D133A-dCK (P27707 whole entry A100V/R104M/D133A): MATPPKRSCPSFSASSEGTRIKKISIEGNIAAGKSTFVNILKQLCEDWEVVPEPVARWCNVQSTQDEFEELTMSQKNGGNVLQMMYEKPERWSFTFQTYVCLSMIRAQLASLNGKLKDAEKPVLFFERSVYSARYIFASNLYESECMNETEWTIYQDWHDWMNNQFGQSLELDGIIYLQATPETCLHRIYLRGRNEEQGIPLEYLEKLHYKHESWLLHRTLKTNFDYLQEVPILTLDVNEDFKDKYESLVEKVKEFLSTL
Description: Since Arg104 plays a role in the already mentioned active site hydrogen-bonding network, its mutation to the uncharged methionine was combined with the compensatory change of Asp133 to an alanine. […] In addition, Ala100 was changed to a valine as is found in dNK.
All experiments were performed in duplicates.

dNK = molecular target: T1, dNK (Drosophila melanogaster, UniProt Q9XZT6); conditions: dC phosphorylation; cited from earlier work
T1 sequence (Q9XZT6 1-250): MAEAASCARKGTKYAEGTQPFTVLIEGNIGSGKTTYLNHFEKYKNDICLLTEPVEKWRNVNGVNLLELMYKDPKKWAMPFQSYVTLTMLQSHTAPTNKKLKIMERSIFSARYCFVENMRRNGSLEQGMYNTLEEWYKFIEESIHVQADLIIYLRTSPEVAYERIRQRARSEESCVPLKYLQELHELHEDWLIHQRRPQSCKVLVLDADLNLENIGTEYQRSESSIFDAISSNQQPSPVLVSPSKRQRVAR

HL60 cell line = test: Annexin V and propidium iodide (PI) staining of apoptotic cells, HL60; format: cell-based; conditions: after 96 hours; AraC at 1 μM
Description: (§1) The HuM195 antibody will only bind and internalize to cells expressing CD33. Thus, the HL60 cell line (derived from AML cells) and the NB4 cell line, which are CD33 positive, were used to test the activity of the HuM195-dCK system in live cells. The cells were treated with AraC, the HuM195-dCK conjugate, or the combination of HuM195-dCK and the AraC. Annexin V and propidium iodide (PI) staining was used to identify apoptotic cells.

NB4 cells = test: Apoptosis assay, NB4; format: cell-based; conditions: after 96 hours; AraC 250 nM
Description: as §1
The NB4 cells were also treated with AraC, the HuM195-dCK conjugate, or the combination of HuM195-dCK and the AraC, and an apoptosis assay was performed as above. The AraC dose used, however, was decreased from 1000 nM to 250 nM. The results were similar to those observed in the HL60 cells (FIG. 8). The conjugate with AraC (right bars) achieve ˜65% cell killing after 96 hours, whereas AraC alone was below 40%.

dCK = dCK (Homo sapiens, UniProt P27707); conditions: versus cladribine; cited from earlier work
Sequence of dCK (P27707 whole entry): as the sequence (P27707 whole entry A100V/R104M/D133A) above, with V100A, M104R, A133D counted along it

Sequence of Wild Type dCK (P27707 whole entry): as the sequence (P27707 whole entry A100V/R104M/D133A) above, with V100A, M104R, A133D counted along it

change in KM compared to dC (Wild Type dCK): slight increase
higher enzymatic efficiency for dCK compared to dC (Wild Type dCK): ~4 fold
increase in the kcat compared to dC (Wild Type dCK): 10 fold
increase of efficiency of the triple mutant over wild type (A100V/R104M/D133A-dCK; triple mutant versus wild type dCK): ~4 fold
SMILES: Nc1ccn([C@@H]2O[C@H](CO)[C@@H](O)C2(F)F)c(=O)n1 [gemcitabine, 2′,2′-difurodeoxycytidine]

SMILES: Nc1ccn([C@H]2C[C@H](O)[C@@H](CO)O2)c(=O)n1 [dC, deoxycytidine]
kcat (dNK): 16.5 s⁻¹

SMILES: Nc1ccn([C@@H]2O[C@H](CO)[C@@H](O)[C@@H]2O)c(=O)n1 [ara-C, 1-β-D-arabinofuranosylcytosine]
cell death (HL60 cell line): 50%
cell killing (NB4 cells): below 40%

SMILES: Cc1cn([C@H]2C[C@H](O)[C@@H](CO)O2)c(=O)[nH]c1=O [thymidine]
phosphorylation of thymidine by the dCK mutant (A100V/R104M/D133A-dCK; Arg104 to methionine, Asp133 to alanine): gained the ability to phosphorylate thymidine

SMILES: Nc1nc(Cl)nc2c1ncn2[C@@H]1O[C@H](CO)[C@@H](O)[C@@H]1F [clofarabine, 2-chloro-2′-arabino-fluoro-2′-deoxyadenosine]
more efficient substrate for dCK than cladribine (dCK): ~3 fold
